For two compounds, refractive index results are on record in the NIST ThermoML archive (doi:10.1016/j.fluid.2007.03.013).

± gives the expanded uncertainty stated by the source.

This series is described as follows: refractive index (Na D-line) (dimensionless). The settings on record: 293.1 K; 101.33 kPa; Liquid; Standard Abbe refractometry.

With `O=CN1CCOCC1` [N-formylmorpholine], the refractive index was 1.484 ± 0.0007. Under `CC1CCCCC1` [methylcyclohexane] stands 1.423 ± 0.0007.

As a reminder, the refractive index is a measure of how strongly the sample bends light.
